In PubChem BioAssay (NCI):
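A five-concentration, 48-hour dose response in 96-well plates underlies each endpoint, interpolated linearly between surrounding concentrations. TGI marks complete inhibition of growth.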

Key:
Experiment in all cases: DTP human tumour cell line panel, 48 h
786-0 renal = system: 786-0 renal
A498 renal = system: A498 renal
A549 NSCLC = system: A549 NSCLC
ACHN renal = system: ACHN renal
CAKI-1 renal = system: CAKI-1 renal
COLO 205 colon = system: COLO 205 colon
DLD-1 colon = system: DLD-1 colon
DMS 114 small cell lung = system: DMS 114 small cell lung
DMS 273 small cell lung = system: DMS 273 small cell lung
EKVX NSCLC = system: EKVX NSCLC
HCC-2998 colon = system: HCC-2998 colon
HCT-116 colon = system: HCT-116 colon
HL-60(TB) leukemia = system: HL-60(TB) leukemia
HOP-18 NSCLC = system: HOP-18 NSCLC
HOP-62 NSCLC = system: HOP-62 NSCLC
HOP-92 NSCLC = system: HOP-92 NSCLC
HT29 colon = system: HT29 colon
IGROV1 ovarian = system: IGROV1 ovarian
K-562 leukemia = system: K-562 leukemia
KM12 colon = system: KM12 colon
KM20L2 colon = system: KM20L2 colon
LOX IMVI melanoma = system: LOX IMVI melanoma
LXFL 529 NSCLC = system: LXFL 529 NSCLC
M14 melanoma = system: M14 melanoma
M19-MEL melanoma = system: M19-MEL melanoma
MALME-3M melanoma = system: MALME-3M melanoma
MOLT-4 leukemia = system: MOLT-4 leukemia
NCI-H226 lung = system: NCI-H226 lung
NCI-H23 lung = system: NCI-H23 lung
NCI-H460 lung = system: NCI-H460 lung
NCI-H522 lung = system: NCI-H522 lung
OVCAR-3 ovarian = system: OVCAR-3 ovarian
OVCAR-4 ovarian = system: OVCAR-4 ovarian
OVCAR-5 ovarian = system: OVCAR-5 ovarian
OVCAR-8 ovarian = system: OVCAR-8 ovarian
RPMI-8226 leukemia = system: RPMI-8226 leukemia
RXF 393 renal = system: RXF 393 renal
SF-268 CNS = system: SF-268 CNS
SF-295 CNS = system: SF-295 CNS
SF-539 CNS = system: SF-539 CNS
SK-MEL-28 melanoma = system: SK-MEL-28 melanoma
SK-OV-3 ovarian = system: SK-OV-3 ovarian
SN12C renal = system: SN12C renal
SNB-19 CNS = system: SNB-19 CNS
SNB-75 CNS = system: SNB-75 CNS
SNB-78 CNS = system: SNB-78 CNS
SR leukemia = system: SR leukemia
SW-620 colon = system: SW-620 colon
TK-10 renal = system: TK-10 renal
U251 CNS = system: U251 CNS
UACC-257 melanoma = system: UACC-257 melanoma
UACC-62 melanoma = system: UACC-62 melanoma
UO-31 renal = system: UO-31 renal
XF 498 CNS = system: XF 498 CNS
CCRF-CEM leukemia = system: CCRF-CEM leukemia
HCT-15 colon = system: HCT-15 colon
SK-MEL-2 melanoma = system: SK-MEL-2 melanoma
SK-MEL-5 melanoma = system: SK-MEL-5 melanoma

## CCOC(=O)C(CCC(N)=O)(CCC(=O)OC)C(=O)OCC
786-0 renal
  TGI: > 100 µM
A498 renal
  TGI: > 100 µM
A549 NSCLC
  TGI: > 100 µM
ACHN renal
  TGI: > 100 µM
CAKI-1 renal
  TGI: > 100 µM
COLO 205 colon
  TGI: > 100 µM
DLD-1 colon
  TGI: > 100 µM
DMS 114 small cell lung
  TGI: > 100 µM
DMS 273 small cell lung
  TGI: > 100 µM
EKVX NSCLC
  TGI: > 100 µM
HCC-2998 colon
  TGI: > 100 µM
HCT-116 colon
  TGI: > 100 µM
HL-60(TB) leukemia
  TGI: > 100 µM
HOP-18 NSCLC
  TGI: > 100 µM
HOP-62 NSCLC
  TGI: > 100 µM
HOP-92 NSCLC
  TGI: > 100 µM
HT29 colon
  TGI: > 100 µM
IGROV1 ovarian
  TGI: > 100 µM
K-562 leukemia
  TGI: > 100 µM
KM12 colon
  TGI: > 100 µM
KM20L2 colon
  TGI: > 100 µM
LOX IMVI melanoma
  TGI: > 100 µM
LXFL 529 NSCLC
  TGI: > 100 µM
M14 melanoma
  TGI: > 100 µM
M19-MEL melanoma
  TGI: > 100 µM
MALME-3M melanoma
  TGI: > 100 µM
MOLT-4 leukemia
  TGI: > 100 µM
NCI-H226 lung
  TGI: > 100 µM
NCI-H23 lung
  TGI: > 100 µM
NCI-H460 lung
  TGI: > 100 µM
NCI-H522 lung
  TGI: > 100 µM
OVCAR-3 ovarian
  TGI: > 100 µM
OVCAR-4 ovarian
  TGI: > 100 µM
OVCAR-5 ovarian
  TGI: > 100 µM
OVCAR-8 ovarian
  TGI: > 100 µM
RPMI-8226 leukemia
  TGI: > 100 µM
RXF 393 renal
  TGI: > 100 µM
SF-268 CNS
  TGI: > 100 µM
SF-295 CNS
  TGI: > 100 µM
SF-539 CNS
  TGI: > 100 µM
SK-MEL-28 melanoma
  TGI: > 100 µM
SK-OV-3 ovarian
  TGI: > 100 µM
SN12C renal
  TGI: > 100 µM
SNB-19 CNS
  TGI: > 100 µM
SNB-75 CNS
  TGI: > 100 µM
SNB-78 CNS
  TGI: > 100 µM
SR leukemia
  TGI: > 100 µM
SW-620 colon
  TGI: > 100 µM
TK-10 renal
  TGI: > 100 µM
U251 CNS
  TGI: > 100 µM
UACC-257 melanoma
  TGI: > 100 µM
UACC-62 melanoma
  TGI: > 100 µM
UO-31 renal
  TGI: > 100 µM
XF 498 CNS
  TGI: > 100 µM

## CSc1ccc2c(cc1=O)[C@@H](NC(=O)c1ccc(Cl)cc1)CCc1cc(O)c(O)c(O)c1-2
786-0 renal
  TGI: > 100 µM
A498 renal
  TGI: > 100 µM
A549 NSCLC
  TGI: > 100 µM
ACHN renal
  TGI: > 100 µM
CAKI-1 renal
  TGI: > 100 µM
CCRF-CEM leukemia
  TGI: > 100 µM
COLO 205 colon
  TGI: > 100 µM
DLD-1 colon
  TGI: 72.7 µM
DMS 114 small cell lung
  TGI: > 100 µM
DMS 273 small cell lung
  TGI: > 100 µM
EKVX NSCLC
  TGI: > 100 µM
HCC-2998 colon
  TGI: > 100 µM
HCT-116 colon
  TGI: 32.1 µM
HCT-15 colon
  TGI: 51.7 µM
HL-60(TB) leukemia
  TGI: > 100 µM
HOP-18 NSCLC
  TGI: > 100 µM
HOP-62 NSCLC
  TGI: > 100 µM
HOP-92 NSCLC
  TGI: > 100 µM
HT29 colon
  TGI: > 100 µM
IGROV1 ovarian
  TGI: 50.8 µM
K-562 leukemia
  TGI: 68.3 µM
KM12 colon
  TGI: > 100 µM
KM20L2 colon
  TGI: > 100 µM
LOX IMVI melanoma
  TGI: 33.6 µM
LXFL 529 NSCLC
  TGI: > 100 µM
M14 melanoma
  TGI: > 100 µM
M19-MEL melanoma
  TGI: > 100 µM
MALME-3M melanoma
  TGI: > 100 µM
MOLT-4 leukemia
  TGI: > 100 µM
NCI-H226 lung
  TGI: > 100 µM
NCI-H23 lung
  TGI: > 100 µM
NCI-H460 lung
  TGI: > 100 µM
NCI-H522 lung
  TGI: 52.1 µM
OVCAR-3 ovarian
  TGI: 56.5 µM
OVCAR-4 ovarian
  TGI: 82 µM
OVCAR-5 ovarian
  TGI: > 100 µM
OVCAR-8 ovarian
  TGI: > 100 µM
RPMI-8226 leukemia
  TGI: 91.5 µM
RXF 393 renal
  TGI: > 100 µM
SF-268 CNS
  TGI: > 100 µM
SF-295 CNS
  TGI: > 100 µM
SF-539 CNS
  TGI: > 100 µM
SK-MEL-2 melanoma
  TGI: > 100 µM
SK-MEL-28 melanoma
  TGI: > 100 µM
SK-MEL-5 melanoma
  TGI: > 100 µM
SK-OV-3 ovarian
  TGI: > 100 µM
SN12C renal
  TGI: 75.8 µM
SNB-19 CNS
  TGI: > 100 µM
SNB-75 CNS
  TGI: > 100 µM
SNB-78 CNS
  TGI: > 100 µM
SW-620 colon
  TGI: 37.1 µM
TK-10 renal
  TGI: > 100 µM
U251 CNS
  TGI: > 100 µM
UACC-257 melanoma
  TGI: > 100 µM
UACC-62 melanoma
  TGI: 68.1 µM
UO-31 renal
  TGI: > 100 µM
